Values of other authors as cited in US8586590B2, “Compounds” (GlaxoSmithKline Intellectual Property Development Limited, priority 2009, dated 2013).

Tests used:
neutrophils = conditions: treatment of neutrophils; Thelen et al. 1994

Row | Structure (SMILES) | inhibitory activity on phospholipases (phospholipases) | neutrophil migration (neutrophil) | superoxide release (neutrophil) | fMLP-induced respiratory burst response (neutrophils)
1 | O=c1cc(N2CCOCC2)oc2c(-c3ccccc3)cccc12 [LY294002] | some inhibitory activity | block | block | 
2 | COC[C@H]1OC(=O)c2coc3c2[C@@]1(C)C1=C(C3=O)[C@@H]2CCC(=O)[C@@]2(C)C[C@H]1OC(C)=O [wortmannin] |  | block | block | prevents the fMLP-induced respiratory burst response
